# Test results from patent US12156885B2, “Methods and compositions for treating heart conditions” (priority 2020, dated 2024).
# How the values were obtained:
# [1] = Treatment of PVCs in a patient with lithium carbonate in combination with metoprolol (cardiac event monitor / EKG); type: in vivo, human; conditions: lithium carbonate 300 mg per day (150 mg BID) in combination with metoprolol 150 mg per day
# From the text: Trial 1 was started on Aug. 23, 2019 and stopped on Jan. 1, 2020; Trial 2 was started on Jan. 12, 2020 and stopped on Apr. 21, 2020; and Trial 3 was started on May 8, 2020 and was ongoing at the time the instant application was filed.
# The first trial was 109 days. The second trial was 43 days.
# [2] = patient; lithium carbonate 300 mg per day (Li2CO3 150 mg BID)
structure (smiles),measurement,setting,value
O=C([O-])[O-].[Li+].[Li+] [lithium carbonate],"PVCs reduced, each of three trials","[1]; each trial, for the duration of treatment with lithium",at least 90%
same,PVCs reduced (reduction of PVCs),"[1]; within a few days, for the duration of lithium treatment",about 90%
same,lithium serum level,[2],about 0.2
